Results reported in patent US9517215B2, “Dermal matrix and production method thereof having synergistic effects comprising microparticles which provides tissue repair” (T.C. EGE UNIVERSITESI, priority 2013, dated 2016).

Test system: human dermal fibroblast cells (Invitrogen C-013-5C)
Assay: Cell vitality of human dermal fibroblast cells after 24 h incubation
Format: cell-based
Method: The human dermal fibroblast cells, (Invitrogen C-013-5C) were cultured in humid conditions comprising 37±0.5° C. and 5% CO2 according to the instructions of the producer. […] Oxidative stress parameters such as total glutation, malondialdehyde, and superoxide dismutase and glutation peroxidase have been examined inside the cells that have been analyzed.

SMILES: Oc1ccc(C=Cc2cc(O)cc(O)c2)cc1 [Resveratrol solution, resveratrol]
- cytotoxic potential (cell vitality): not to have cytotoxic potential
- cell proliferation effect (concentrations corresponding to 50 μM resveratrol content): cell proliferation increasing effects
